Measurements taken from patent US9101638B2, “Boronic acid derivatives and therapeutic uses thereof” (Rempex Pharmaceuticals, Inc., priority 2013, dated 2015).
Where two headings read alike, the source gives them in different places.

How the values were obtained:
[1] = system: ECL1002; test: Potentiation of aztreonam, strain ECL1002; format: cell-based; settings: minimum BLI concentration inhibiting growth with 4 μg/mL aztreonam
[2] = system: PAM1032/KPC-2; test: Biapenem potentiation in PAM1032/KPC-2 (MexAB-OprM overexpressed); format: cell-based, Pseudomonas aeruginosa
Description: (§1) Efflux of BLIs from Pseudomonas aeruginosa by the MexAB-OprM efflux pump was also evaluated. […] Due to expression of KPC-2 both strains became resistant to biapenem. […] Potency of BLIs to potentiate biapenem in these strains was determined. […] The ratio of MPC64 values for each BLI in PAM1032/KPC-2 (efflux proficient) and PAM1154/KPC-2 (efflux deficient) was determined to generate the Efflux Index (EI).

[3] = system: ec308 (SHV-5); test: Potentiation of aztreonam, strain ec308; format: cell-based; settings: minimum BLI concentration inhibiting growth with 4 μg/mL aztreonam
[4] = system: PAM1154/KPC-2; test: Biapenem potentiation in PAM1154/KPC-2 (MexAB-OprM lacking); format: cell-based, Pseudomonas aeruginosa
Description: as §1

[5] = system: ec308 (SHV-5); test: Potentiation of tigemonam, strain ec308; format: cell-based; settings: minimum BLI concentration inhibiting growth with 4 μg/mL tigemonam
[6] = system: ec302 (TEM-10); test: Potentiation of aztreonam, strain ec302; format: cell-based
[7] = system: KP1005 (CTX-M-14); test: Potentiation of aztreonam, strain KP1005; format: cell-based
[8] = system: KP1009 (CTX-M-15); test: Potentiation of aztreonam, strain KP1009; format: cell-based
[9] = biological target: T1, CathepsinA (Homo sapiens, UniProt P10619); test: Serine protease inhibition: cathepsin A; format: biochemical, mammalian; settings: Table 8B; read-out: IC50 CathepsinA
T1 construct: purchased R&D Systems 1049-SE
T1 sequence (P10619 29-480): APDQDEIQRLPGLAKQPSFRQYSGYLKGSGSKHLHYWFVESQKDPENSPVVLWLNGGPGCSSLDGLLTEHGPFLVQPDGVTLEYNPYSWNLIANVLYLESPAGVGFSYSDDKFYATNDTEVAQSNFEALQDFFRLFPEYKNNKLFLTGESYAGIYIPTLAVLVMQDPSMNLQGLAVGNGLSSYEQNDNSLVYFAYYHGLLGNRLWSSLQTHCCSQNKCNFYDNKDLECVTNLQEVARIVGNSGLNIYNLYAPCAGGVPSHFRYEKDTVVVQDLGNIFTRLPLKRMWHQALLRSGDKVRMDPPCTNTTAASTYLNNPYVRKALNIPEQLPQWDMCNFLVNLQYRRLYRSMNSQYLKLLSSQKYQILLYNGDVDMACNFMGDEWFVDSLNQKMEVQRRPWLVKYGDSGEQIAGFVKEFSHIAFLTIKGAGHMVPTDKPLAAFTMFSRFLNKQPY
Description: (§2) The effect of selected BLIs on the enzymatic activity of some common mammalian serine proteases was evaluated.
(§3) 50 μl of the diluted enzyme was mixed with 50 μl of inhibitor at various concentrations and 50 μl of corresponding buffer (Table 7). Reaction mixtures were incubated for 10 min at 37° C. Subsequently, 50 μl of corresponding substrate (Table 7) was added and absorbance or fluorescence was monitored for 30 min on SpectraMax M2 plate reader (Molecular Devices). 4-(2-Aminoethyl)benzenesulfonyl fluoride hydrochloride (AEBSF) and leupeptin were used as positive controls. Rates of reaction were calculated and presented relative to “no treatment” control.

[10] = system: EC1010 (CMY-6); format: cell-based
[11] = biological target: KPC-2 (Klebsiella pneumoniae, UniProt Q9F663); test: Inhibition of nitrocefin cleavage by purified KPC-2; format: biochemical; settings: nitrocefin reporter substrate, purified enzyme; read-out: Ki (KPC-2, NCF)
KPC-2, sequence (Q9F663 25-293, looked up, species assumed): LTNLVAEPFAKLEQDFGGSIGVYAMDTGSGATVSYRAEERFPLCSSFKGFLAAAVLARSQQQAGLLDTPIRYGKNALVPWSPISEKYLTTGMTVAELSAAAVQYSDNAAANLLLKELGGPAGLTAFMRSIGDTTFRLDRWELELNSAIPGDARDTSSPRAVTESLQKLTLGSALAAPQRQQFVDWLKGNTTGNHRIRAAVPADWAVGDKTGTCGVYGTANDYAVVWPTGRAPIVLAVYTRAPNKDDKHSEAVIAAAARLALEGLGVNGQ
Description: (§4) Purified enzymes were mixed with various concentrations of inhibitors in reaction buffer and incubated for 10 min at room temperature. Nitrocefin was added and substrate cleavage profiles were recorded at 490 nm every 10 sec for 10 min.

[12] = biological target: CTX-M-14 (Escherichia coli, UniProt Q9L5C7); test: Inhibition of nitrocefin cleavage by purified CTX-M-14; format: biochemical; settings: nitrocefin reporter substrate, purified enzyme; read-out: Ki (CTX-M-14, NCF)
CTX-M-14, sequence (Q9L5C7 entry or part of it): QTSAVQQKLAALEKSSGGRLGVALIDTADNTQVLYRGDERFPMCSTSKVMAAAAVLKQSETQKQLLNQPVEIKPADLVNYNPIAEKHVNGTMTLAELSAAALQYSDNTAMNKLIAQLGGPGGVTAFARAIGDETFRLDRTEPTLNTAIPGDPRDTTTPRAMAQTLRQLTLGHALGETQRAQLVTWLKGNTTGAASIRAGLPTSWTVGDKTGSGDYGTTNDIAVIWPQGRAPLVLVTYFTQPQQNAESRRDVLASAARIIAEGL
Description: as §4

[13] = system: EC1010 (CMY-6); test: Potentiation of aztreonam, strain EC1010; format: cell-based
[14] = system: ec302 (TEM-10); test: Potentiation of tigemonam, strain ec302; format: cell-based
[15] = biological target: T2, CathepsinG (Homo sapiens, UniProt P08311); test: Serine protease inhibition: cathepsin G; format: biochemical, mammalian; settings: Table 8B
T2 construct: purchased EMD Millipore 219373
T2 sequence (P08311 21-244): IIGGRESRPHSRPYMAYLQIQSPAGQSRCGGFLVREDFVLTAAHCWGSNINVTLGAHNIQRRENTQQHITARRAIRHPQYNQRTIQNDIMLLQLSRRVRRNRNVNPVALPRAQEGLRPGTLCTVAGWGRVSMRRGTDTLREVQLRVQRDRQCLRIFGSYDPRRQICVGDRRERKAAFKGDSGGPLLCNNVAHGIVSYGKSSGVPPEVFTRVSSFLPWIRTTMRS
Description: as §2, §3

[16] = system: KP1004 (K-2); test: Potentiation of aztreonam, strain KP1004; format: cell-based; settings: minimum BLI concentration inhibiting growth with 4 μg/mL aztreonam
[17] = biological target: SHV-12 (Klebsiella pneumoniae, UniProt P0AD64, E235K/G234S/L31Q); test: Inhibition of nitrocefin cleavage by purified SHV-12; format: biochemical; settings: nitrocefin reporter substrate, purified enzyme; read-out: Ki (SHV-12, NCF)
SHV-12, sequence (P0AD64 22-286 L31Q/G234S/E235K): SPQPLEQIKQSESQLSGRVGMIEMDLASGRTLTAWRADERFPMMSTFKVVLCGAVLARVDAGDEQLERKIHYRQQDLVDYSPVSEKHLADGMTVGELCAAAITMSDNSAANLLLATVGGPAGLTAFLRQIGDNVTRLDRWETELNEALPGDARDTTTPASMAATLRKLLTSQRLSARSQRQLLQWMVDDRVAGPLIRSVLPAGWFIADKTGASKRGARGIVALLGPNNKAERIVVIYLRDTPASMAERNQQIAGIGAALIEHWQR
Description: as §4

[18] = biological target: OXA-48 (Klebsiella pneumoniae, UniProt Q6XEC0); test: Inhibition of nitrocefin cleavage by purified OXA-48; format: biochemical; settings: nitrocefin reporter substrate, purified enzyme; read-out: Ki (OXA-48, NCF)
OXA-48, sequence (Q6XEC0 23-265 limits assumed): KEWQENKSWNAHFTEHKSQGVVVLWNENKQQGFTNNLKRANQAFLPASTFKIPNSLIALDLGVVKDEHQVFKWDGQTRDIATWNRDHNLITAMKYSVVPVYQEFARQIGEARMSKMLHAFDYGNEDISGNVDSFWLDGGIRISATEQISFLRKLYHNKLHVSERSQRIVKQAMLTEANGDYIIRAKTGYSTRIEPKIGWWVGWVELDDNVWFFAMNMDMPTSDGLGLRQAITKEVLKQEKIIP
Description: as §4

[19] = system: KP1009 (CTX-M-15); test: Potentiation of tigemonam, strain KP1009; settings: minimum BLI concentration inhibiting growth with 4 μg/mL tigemonam
[20] = BLI potency to decrease biapenem MIC 64-fold, 32 to 0.5 μg/ml, efflux proficient strain

SMILES | AZT MPC4 ECL1002 [1] | PAM1032/KPC-2 Biapenem MPC64 [2, 20] | AZT MPC4 SHV-5 ec308 [3] | PAM1154/KPC-2 Biapenem MPC64 [4] | TIG MPC4 SHV-5 ec308 [5] | AZT MPC4 TEM-10 ec302 [6] | AZT MPC4 CTX-M-14 KP1005 [7] | AZT MPC4 CTX-M-15 KP1009 [8] | IC50 [9] [nM] | TIG MPC4 CMY-6 EC1010 [10] | Ki [11] [nM] | Ki [12] [nM] | AZT MPC4 CMY-6 EC1010 [13] | TIG MPC4 TEM-10 ec302 [14] | IC50 [15] [nM] | AZT MPC4 K-2 KP1004 [16] | Ki [17] [nM] | Ki [18] [nM] | TIG MPC4 CTX-M-15 KP1009 [19] | PAM1032/KPC-2 Biapenem MPC64 [2]
O=C(N[C@H]1Cc2cccc(C(=O)O)c2OB1O)c1cncs1 [Compound 15, (R)-2-hydroxy-3-(thiazole-5-carboxamido)-3,4-dihydro-2H-benzo[e][1,2]oxaborinine-8-carboxylic acid] | Y (Y = MIC of 1 μg/mL to 10 μg/mL) | Z (Z Greater than 40) | X (X = MIC of less than 1 μg/mL) | X (key: X = Less than 10; Y = 10 to 40; Z Greater than 40) | Y (Y = MIC of 1 μg/mL to 10 μg/mL) | X (key: X = MIC of less than 1 μg/mL; Y = MIC of 1 μg/mL to 10 μg/mL; Z = MIC of greater than 10 μg/mL) | Y (key: X = MIC of less than 1 μg/mL; Y = MIC of 1 μg/mL to 10 μg/mL; Z = MIC of greater than 10 μg/mL) | Y (key: X = MIC of less than 1 μg/mL; Y = MIC of 1 μg/mL to 10 μg/mL; Z = MIC of greater than 10 μg/mL) | 15000 to 500000 | Y (key: X = MIC of less than 1 μg/mL; Y = MIC of 1 μg/mL to 10 μg/mL; Z = MIC of greater than 10 μg/mL) | > 10 | < 1 | Y (key: X = MIC of less than 1 μg/mL; Y = MIC of 1 μg/mL to 10 μg/mL; Z = MIC of greater than 10 μg/mL) | Y (key: X = MIC of less than 1 μg/mL; Y = MIC of 1 μg/mL to 10 μg/mL; Z = MIC of greater than 10 μg/mL) | 15000 to 500000 | Y (Y = MIC of 1 μg/mL to 10 μg/mL) | < 1 | < 1 | Y (Y = MIC of 1 μg/mL to 10 μg/mL) | –
CSCC(=O)N[C@H]1Cc2cccc(C(=O)O)c2OB1O [Compound 13, (R)-2-hydroxy-3-(2-(methylthio)acetamido)-3,4-dihydro-2H-benzo[e][1,2]oxaborinine-8-carboxylic acid] | X (X = MIC of less than 1 μg/mL) | Y (Y = 10 to 40) | X (X = MIC of less than 1 μg/mL) | X (key: X = Less than 10; Y = 10 to 40; Z Greater than 40) | X (X = MIC of less than 1 μg/mL) | Y (key: X = MIC of less than 1 μg/mL; Y = MIC of 1 μg/mL to 10 μg/mL; Z = MIC of greater than 10 μg/mL) | X (key: X = MIC of less than 1 μg/mL; Y = MIC of 1 μg/mL to 10 μg/mL; Z = MIC of greater than 10 μg/mL) | – | – | X (key: X = MIC of less than 1 μg/mL; Y = MIC of 1 μg/mL to 10 μg/mL; Z = MIC of greater than 10 μg/mL) | > 10 | < 1 | – | – | – | X (X = MIC of less than 1 μg/mL) | – | < 1 | X (X = MIC of less than 1 μg/mL) | –
NC(=O)N[C@H]1Cc2cccc(C(=O)O)c2OB1O [Compound 6, (R)-2-hydroxy-3-ureido-3,4-dihydro-2H-benzo[e][1,2]oxaborinine-8-carboxylic acid] | Z (Z = MIC of greater than 10 μg/mL) | – | Y (Y = MIC of 1 μg/mL to 10 μg/mL) | X (key: X = Less than 10; Y = 10 to 40; Z Greater than 40) | Z (Z = MIC of greater than 10 μg/mL) | Z (key: X = MIC of less than 1 μg/mL; Y = MIC of 1 μg/mL to 10 μg/mL; Z = MIC of greater than 10 μg/mL) | Y (key: X = MIC of less than 1 μg/mL; Y = MIC of 1 μg/mL to 10 μg/mL; Z = MIC of greater than 10 μg/mL) | Y (key: X = MIC of less than 1 μg/mL; Y = MIC of 1 μg/mL to 10 μg/mL; Z = MIC of greater than 10 μg/mL) | – | X (key: X = MIC of less than 1 μg/mL; Y = MIC of 1 μg/mL to 10 μg/mL; Z = MIC of greater than 10 μg/mL) | – | 1 to 10 | Y (key: X = MIC of less than 1 μg/mL; Y = MIC of 1 μg/mL to 10 μg/mL; Z = MIC of greater than 10 μg/mL) | Z (key: X = MIC of less than 1 μg/mL; Y = MIC of 1 μg/mL to 10 μg/mL; Z = MIC of greater than 10 μg/mL) | – | X (X = MIC of less than 1 μg/mL) | 1 to 10 | – | Y (Y = MIC of 1 μg/mL to 10 μg/mL) | X (key: X = Less than 10; Y = 10 to 40; Z Greater than 40)
O=C(N[C@H]1Cc2cccc(C(=O)O)c2OB1O)c1cncc(F)c1 [Compound 14, (R)-3-(5-fluoronicotinamido)-2-hydroxy-3,4-dihydro-2H-benzo[e][1,2]oxaborinine-8-carboxylic acid] | Y (Y = MIC of 1 μg/mL to 10 μg/mL) | Z (Z Greater than 40) | Y (Y = MIC of 1 μg/mL to 10 μg/mL) | X (key: X = Less than 10; Y = 10 to 40; Z Greater than 40) | Y (Y = MIC of 1 μg/mL to 10 μg/mL) | Y (key: X = MIC of less than 1 μg/mL; Y = MIC of 1 μg/mL to 10 μg/mL; Z = MIC of greater than 10 μg/mL) | Y (key: X = MIC of less than 1 μg/mL; Y = MIC of 1 μg/mL to 10 μg/mL; Z = MIC of greater than 10 μg/mL) | Y (key: X = MIC of less than 1 μg/mL; Y = MIC of 1 μg/mL to 10 μg/mL; Z = MIC of greater than 10 μg/mL) | 15000 to 500000 | Y (key: X = MIC of less than 1 μg/mL; Y = MIC of 1 μg/mL to 10 μg/mL; Z = MIC of greater than 10 μg/mL) | > 10 | < 1 | Y (key: X = MIC of less than 1 μg/mL; Y = MIC of 1 μg/mL to 10 μg/mL; Z = MIC of greater than 10 μg/mL) | Y (key: X = MIC of less than 1 μg/mL; Y = MIC of 1 μg/mL to 10 μg/mL; Z = MIC of greater than 10 μg/mL) | 15000 to 500000 | Y (Y = MIC of 1 μg/mL to 10 μg/mL) | < 1 | – | Y (Y = MIC of 1 μg/mL to 10 μg/mL) | –
